From ChEMBL document CHEMBL1275553, “Pyrosequencing to detect mutations in FKS1 that confer reduced echinocandin susceptibility in Candida albicans” (2008)
≈ marks a conversion by molar mass, not a printed value. Starred links: 1 amine or outer side, 2 acyl side, 3 side chain; linkers in the order of their positions; H or OH if unused. Positions of bridges follow the written chain, without caps; N, C: chain ends. Non-standard residues stand in square brackets, D forms with d. Residues, ends and D or L forms follow the SMILES beside them. *: point of attachment. hTyr(3S-OH,4S-OH,3'-OSO3H) = N[C@H](C(=O)O)[C@H](O)[C@@H](O)c1ccc(O)c(OS(=O)(=O)O)c1; pTerphenylCO(4''-OnC5H11) = CCCCCOc1ccc(-c2ccc(-c3ccc(C(=O)*)cc3)cc2)cc1; Orn(4R-OH,5R-OH) = O=C([C@H](C[C@@H](O)[C@@H](O)N[*:3])N[*:1])[*:2]; hTyr(3S-OH,4S-OH) = N[C@H](C(=O)O)[C@H](O)[C@@H](O)c1ccc(O)cc1; Pro(3S-OH,4S-Me) = C[C@H]1CN[C@H](C(=O)O)[C@H]1O; X1 = CCCCCOc1ccc(-c2cc(-c3ccc(C(=O)*)cc3)no2)cc1; Gln(3R-OH) = NC(=O)C[C@@H](O)[C@H](N)C(=O)O; Hyp = O=C(O)[C@@H]1C[C@@H](O)CN1

Tests used:
Assay type in all cases: functional
Candida albicans [1] = test: Antifungal activity against Candida albicans 53264 expressing FKS1 F645P mutant after 24 hrs by broth microdilution method in presence of 50% human serum; details: Candida albicans, 53264, 24 h
Candida albicans [2] = test: Antifungal activity against Candida albicans 5415 expressing FKS1 F645P/H mutant after 24 hrs by broth microdilution method; details: Candida albicans, 5415, 24 h
Candida albicans [3] = test: Antifungal activity against Candida albicans 41509 expressing FKS1 F641S mutant after 24 hrs by broth microdilution method in presence of 50% human serum; details: Candida albicans, 41509, 24 h
Candida albicans [4] = test: Antifungal activity against Candida albicans 53264 expressing FKS1 F645P mutant after 24 hrs by broth microdilution method; details: Candida albicans, 53264, 24 h
Candida albicans [5] = test: Antifungal activity against Candida albicans SC5314 expressing wild type FKS1 after 24 hrs by broth microdilution method in presence of 50% human serum; details: SC5314, 24 h
Candida albicans [6] = test: Antifungal activity against Candida albicans 42996 expressing FKS1 F641S mutant after 24 hrs by broth microdilution method; details: Candida albicans, 42996, 24 h
Candida albicans [7] = test: Antifungal activity against Candida albicans 42996 expressing FKS1 F641S mutant after 24 hrs by broth microdilution method in presence of 50% human serum; details: Candida albicans, 42996, 24 h
Candida albicans [8] = test: Antifungal activity against Candida albicans 43001 expressing FKS1 F641S mutant after 24 hrs by broth microdilution method in presence of 50% human serum; details: Candida albicans, 43001, 24 h
Candida albicans [9] = test: Antifungal activity against Candida albicans 42379 expressing FKS1 F645P mutant after 24 hrs by broth microdilution method; details: Candida albicans, 42379, 24 h
Candida albicans [10] = test: Antifungal activity against Candida albicans 4254 expressing FKS1 F641S mutant after 24 hrs by broth microdilution method in presence of 50% human serum; details: Candida albicans, 4254, 24 h
Candida albicans [11] = test: Antifungal activity against Candida albicans 41301 expressing FKS1 F641S mutant after 24 hrs by broth microdilution method in presence of 50% human serum; details: Candida albicans, 41301, 24 h
Candida albicans [12] = test: Antifungal activity against Candida albicans 2762 expressing FKS1 F641S mutant after 24 hrs by broth microdilution method in presence of 50% human serum; details: Candida albicans, 2762, 24 h
Candida albicans [13] = test: Antifungal activity against Candida albicans SC5314 expressing wild type FKS1 after 24 hrs by broth microdilution method; details: SC5314, 24 h
Candida albicans [14] = test: Antifungal activity against Candida albicans 4715 expressing FKS1 F641S mutant after 24 hrs by broth microdilution method; details: Candida albicans, 4715, 24 h
Candida albicans [15] = test: Antifungal activity against Candida albicans 42286 expressing wild type FKS1 after 24 hrs by broth microdilution method in presence of 50% human serum; details: Candida albicans, 42286, 24 h
Candida albicans [16] = test: Antifungal activity against Candida albicans 42286 expressing wild type FKS1 after 24 hrs by broth microdilution method; details: Candida albicans, 42286, 24 h
Candida albicans [17] = test: Antifungal activity against Candida albicans 41301 expressing FKS1 F641S mutant after 24 hrs by broth microdilution method; details: Candida albicans, 41301, 24 h
Candida albicans [18] = test: Antifungal activity against Candida albicans 32746 expressing FKS1 F641S mutant after 24 hrs by broth microdilution method; details: Candida albicans, 32746, 24 h
Candida albicans [19] = test: Antifungal activity against Candida albicans 42379 expressing FKS1 F645P mutant after 24 hrs by broth microdilution method in presence of 50% human serum; details: Candida albicans, 42379, 24 h
Candida albicans [20] = test: Antifungal activity against Candida albicans 32746 expressing FKS1 F641S mutant after 24 hrs by broth microdilution method in presence of 50% human serum; details: Candida albicans, 32746, 24 h
Candida albicans [21] = test: Antifungal activity against Candida albicans 43001 expressing FKS1 F641S mutant after 24 hrs by broth microdilution method; details: Candida albicans, 43001, 24 h
Candida albicans [22] = test: Antifungal activity against Candida albicans 4715 expressing FKS1 F641S mutant after 24 hrs by broth microdilution method in presence of 50% human serum; details: Candida albicans, 4715, 24 h
Candida albicans [23] = test: Antifungal activity against Candida albicans 2762 expressing FKS1 F641S mutant after 24 hrs by broth microdilution method; details: Candida albicans, 2762, 24 h
Candida albicans [24] = test: Antifungal activity against Candida albicans 4254 expressing FKS1 F641S mutant after 24 hrs by broth microdilution method; details: Candida albicans, 4254, 24 h
Candida albicans [25] = test: Antifungal activity against Candida albicans 5415 expressing FKS1 F645P/H mutant after 24 hrs by broth microdilution method in presence of 50% human serum; details: Candida albicans, 5415, 24 h
Candida albicans [26] = test: Antifungal activity against Candida albicans 41509 expressing FKS1 F641S mutant after 24 hrs by broth microdilution method; details: Candida albicans, 41509, 24 h

SMILES | MIC (Candida albicans [1]) [µg/mL] | MIC (Candida albicans [2]) [µg/mL] | MIC (Candida albicans [3]) [µg/mL] | MIC (Candida albicans [4]) [µg/mL] | MIC (Candida albicans [5]) [µg/mL] | MIC (Candida albicans [6]) [µg/mL] | MIC (Candida albicans [7]) [µg/mL] | MIC (Candida albicans [8]) [µg/mL] | MIC (Candida albicans [9]) [µg/mL] | MIC (Candida albicans [10]) [µg/mL] | MIC (Candida albicans [11]) [µg/mL] | MIC (Candida albicans [12]) [µg/mL] | MIC (Candida albicans [13]) [µg/mL] | MIC (Candida albicans [14]) [µg/mL] | MIC (Candida albicans [15]) [µg/mL] | MIC (Candida albicans [16]) [µg/mL] | MIC (Candida albicans [17]) [µg/mL] | MIC (Candida albicans [18]) [µg/mL] | MIC (Candida albicans [19]) [µg/mL] | MIC (Candida albicans [20]) [µg/mL] | further results
CCCCCOc1ccc(-c2cc(-c3ccc(C(=O)N[C@H]4C[C@@H](O)[C@@H](O)NC(=O)[C@@H]5[C@@H](O)[C@@H](C)CN5C(=O)[C@H]([C@H](O)CC(N)=O)NC(=O)[C@H]([C@H](O)[C@@H](O)c5ccc(O)c(OS(=O)(=O)O)c5)NC(=O)[C@@H]5C[C@@H](O)CN5C(=O)[C@H]([C@@H](C)O)NC4=O)cc3)no2)cc1 [MICAFUNGIN] (X1-[Orn(4R-OH,5R-OH)]T[Hyp][hTyr(3S-OH,4S-OH,3'-OSO3H)][Gln(3R-OH)][Pro(3S-OH,4S-Me)]; lactam 1-C) | > 32 | 1 (≈ 0.787 µM) | 32 | 4 (≈ 3.15 µM) | 1 | 1 (≈ 0.787 µM) | 32 | 16 | 4 (≈ 3.15 µM) | 8 | 16 | 16 | 0.06 (≈ 0.0472 µM) | 1 (≈ 0.787 µM) | 8 | 1 (≈ 0.787 µM) | 0.5 (≈ 0.394 µM) | 1 (≈ 0.787 µM) | > 32 | 16 | MIC (Candida albicans [21]): 2 µg/mL (≈ 1.57 µM); MIC (Candida albicans [22]): 16 µg/mL; MIC (Candida albicans [23]): 1 µg/mL (≈ 0.787 µM); MIC (Candida albicans [24]): 0.5 µg/mL (≈ 0.394 µM); MIC (Candida albicans [25]): 32 µg/mL; MIC (Candida albicans [26]): 0.5 µg/mL (≈ 0.394 µM)
CC[C@H](C)C[C@H](C)CCCCCCCCC(=O)N[C@H]1C[C@@H](O)[C@@H](NCCN)NC(=O)[C@@H]2[C@@H](O)CCN2C(=O)[C@H]([C@H](O)CCN)NC(=O)[C@H]([C@H](O)[C@@H](O)c2ccc(O)cc2)NC(=O)[C@@H]2C[C@@H](O)CN2C(=O)[C@H]([C@@H](C)O)NC1=O [CASPOFUNGIN] | > 32 | 8 (≈ 7.32 µM) | 8 | 4 (≈ 3.66 µM) | 0.25 | 4 (≈ 3.66 µM) | 8 | 8 | 8 (≈ 7.32 µM) | 4 | 8 | 8 | 0.125 (≈ 0.114 µM) | 2 (≈ 1.83 µM) | 4 | 2 (≈ 1.83 µM) | 4 (≈ 3.66 µM) | 4 (≈ 3.66 µM) | > 32 | 4 | MIC (Candida albicans [21]): 4 µg/mL (≈ 3.66 µM); MIC (Candida albicans [22]): 8 µg/mL; MIC (Candida albicans [23]): 4 µg/mL (≈ 3.66 µM); MIC (Candida albicans [24]): 2 µg/mL (≈ 1.83 µM); MIC (Candida albicans [25]): 32 µg/mL; MIC (Candida albicans [26]): 4 µg/mL (≈ 3.66 µM)
CCCCCOc1ccc(-c2ccc(-c3ccc(C(=O)N[C@H]4C[C@@H](O)[C@@H](O)NC(=O)[C@@H]5[C@@H](O)[C@@H](C)CN5C(=O)[C@H]([C@@H](C)O)NC(=O)[C@H]([C@H](O)[C@@H](O)c5ccc(O)cc5)NC(=O)[C@@H]5C[C@@H](O)CN5C(=O)[C@H]([C@@H](C)O)NC4=O)cc3)cc2)cc1 [ANIDULAFUNGIN] ({pTerphenylCO(4''-OnC5H11)}-[Orn(4R-OH,5R-OH)]T[Hyp][hTyr(3S-OH,4S-OH)]T[Pro(3S-OH,4S-Me)]; lactam 1-C) | 32 | 1 (≈ 0.877 µM) | 8 | 1 (≈ 0.877 µM) | 0.5 | 0.125 (≈ 0.11 µM) | 4 | 4 | 0.5 (≈ 0.438 µM) | 2 | 8 | 4 | 0.03 (≈ 0.0263 µM) | 0.25 (≈ 0.219 µM) | 1 | 0.125 (≈ 0.11 µM) | 0.25 (≈ 0.219 µM) | 0.25 (≈ 0.219 µM) | 8 | 8 | MIC (Candida albicans [21]): 0.5 µg/mL (≈ 0.438 µM); MIC (Candida albicans [22]): 8 µg/mL; MIC (Candida albicans [23]): 0.5 µg/mL (≈ 0.438 µM); MIC (Candida albicans [24]): 0.125 µg/mL (≈ 0.11 µM); MIC (Candida albicans [25]): 16 µg/mL; MIC (Candida albicans [26]): 0.5 µg/mL (≈ 0.438 µM)
